Earlier results on one compound are cited in US20250205209A1, “Methods of Treating a Subject for Myalgic Encephalomyelitis/Chronic Fatigue Syndrome (ME/CFS) and Compositions for Use in The Same” (INCELLDX, INC., priority 2022, published 2025).

In one data set the test system is R5-tropic HIV-1. Conditions: individuals with R5-tropic HIV-1; MOTIVATE 1 and MOTIVATE 2.
For data set [1] the following is noted: HIV patients; >5 year follow-up of the MOTIVATE trials.

Consider `Cc1nnc(C(C)C)n1[C@@H]1C[C@H]2CC[C@@H](C1)N2CC[C@H](NC(=O)C1CCC(F)(F)CC1)c1ccccc1` [Maraviroc, 4,4-difluoro-N-[(1S)-3-[(1S,5R)-3-(3-methyl-5-propan-2-yl-1,2,4-triazol-4-yl)-8-azabicyclo[3.2.1]octan-8-yl]-1-phenylpropyl]cyclohexane-1-carboxamide], for which the HIV viral loads result with R5-tropic HIV-1 is on record as “lower levels of HIV viral loads”. Besides, in data set [1], the “instances of death and other health threats such as hepatic failure and myocardial infarctions” value is “limited instances of death and other health threats”.
